{"source": "patent US20090176744A1", "about": "“Deuterated fingolimod” (CoNCERT Pharmaceuticals, Inc., priority 2007, published 2009)", "origin": "cited, not measured here", "key": {"[1]": {"conditions": "general finding of cited clinical studies (Kahan 2003; Budde 2002; Ferguson 2003)"}, "[2]": {"conditions": "renal transplant patients; reversible upon cessation of treatment (Tedesco-Silva 2004)"}}}
{"smiles": "CCCCCCCCc1ccc(CCC(N)(CO)CO)cc1.Cl", "note": "[fingolimod, 2-amino-2-[2-(4-octylphenyl)ethyl]-1,3-propanediol hydrochloride]", "values": [{"measurement": "safety and tolerability", "setting": "[1]", "result": "safe and well-tolerated"}, {"measurement": "heart rate", "setting": "[2]", "result": "mild and transient reduction in heart rate"}]}
